Data: publication PMC8977034, “Amphipathic dendritic poly-peptides carrier to deliver antisense oligonucleotides against multi-drug resistant bacteria in vitro and in vivo” (Journal of Nanobiotechnology, 2022)

Columns and labels:
[1] = test system: ESBLs-E. coli; experiment: Bacterial load (CFU) in organs of septic mice; type: in vivo, male Balb/c mice; conditions: text 1.5 mg kg^−1, methods 4 mg kg^−1; ten hours after infection; mean ± SE
Description: Two mice in each group were sacrificed 10 h after infection to study the bacterial clearance. The liver and kidney were harvested aseptically, one kidney and one lobe of liver of each mouse were weighed, and homogenized in 500 μl sterile saline solution, then 50 μl homogenate sample of each mice was performed serial tenfold dilutions to a 10^–5 dilution. Carefully spread 100 μL of each dilution onto a M–H agarose plate using a glass spreader. Incubate plates at 37 °C overnight and calculate the bacterial load. Colony counts were expressed as CFU g^−1 of tissue.

[2] = test system: ESBLs-E. coli; experiment: Survival assay in mouse sepsis model; type: in vivo, male Balb/c mice; conditions: text 1.5 mg kg^−1, methods and Fig. 5 legend 4 mg/kg; i.p. at 0.5 and 6 h after infection; n = 10
Description: Male Balb/c mice (6–8 weeks old and weighing 18–22 g) were used in this experiment. The experimental and animal care procedures were approved by the Animal Care and Use Committee of Fourth Military Medical University. All methods were carried out strictly in accordance with the approved guidelines. 4 × 10^5 CFU ESBLs-E. coli in 400 μl M–H broth were administrated intraperitoneally into the mice to construct a sepsis model. Then, the mice were randomly divided to ten groups, which were administered intraperitoneally with 400 μL solutions containing 0.5 (based on ASOs), 1 or 1.5 mg kg^−1 DP-AD7anti-acpP and the counterpart DP-AD7mismatch, 1.5 mg kg^−1 L-DP-AD7anti-acpP, 1.5 mg kg^−1 LF2000-NPsanti-acpP, 4 mg kg^−1 ceftazidime or PBS at 0.5 and 6 h after infection. The surviving mice in each group were monitored every 6 h for the first day, afterwards, monitored every 12 h for 7 days day after infection, and the survival ratio was analyzed by Kaplan–Meier estimator.

[3] = test system: E. coli, ESBLs-E. coli, S. aureus and MRSA; experiment: Delivery efficiency by flow cytometry, tested strains together; type: cell-based; conditions: FAM-labeled, 1 h, 37 °C, flow cytometry (Fig. S9, S10)
Description: To measure the delivery efficiency, FAM-labeled DP-AD were added to bacterial cultures (approximately 5 × 10^6 CFU in 300 μl M–H broth) and incubated at 37 °C for 1 h away from light. The bacterial solutions were centrifuged at 2500 g at 4 °C for 5 min and washed twice with phosphate buffered saline (PBS) before analyzing them using the BL1 (green) channel in flow cytometry (Novocyte, Acer, USA). Data were analyzed using Flowjo software (version 10.0.7, Tree Star, Ashland, OR, USA). Free FAM-labeled ASOs and LF2000-NPs were used as the negative and positive control, respectively.
To measure the delivery rate of DP-AD7 in different types of bacteria, the bacteria (approximately 5 × 10^6 CFU in 300 μl M–H broth) were incubated with FAM-labeled DP-AD7 for 5, 10, 30 or 60 min at 37 °C or at 4 °C for 60 min in dark, then the bacterial solutions were processed, measured and analyzed as described above.

Row | Compound | Average bacterial load in the kidney, ceftazidime [1] | Survival rate of septic mice, ceftazidime [2] [%] | Capacity to deliver ASOs into bacteria [3]
1 | CC(C)(O/N=C(\C(=O)N[C@@H]1C(=O)N2C(C(=O)[O-])=C(C[n+]3ccccc3)CS[C@H]12)c1csc(N)n1)C(=O)O [ceftazidime] | 8.41 ± 1.60 × 10^7 CFU g^−1 | 30 | 
2 | Ac-LWALWK(Ac)K(Ac)K(Ac)RRHRRRHR [L-DPP, linear counterpart of DPP7, amphipathic, 9 positive charge and 2 His residues] |  |  | failure
